Measured values as given in patent US9388199B2, “Pyrrolidine derivatives and their use as complement pathway modulators” (priority 2012, dated 2016).

What follows are compounds tested against Recombinant human factor D (Homo sapiens (Human), UniProt P00746) (assay: Human Complement Factor D Assay: Method 1). Settings: 10 nM factor D, substrate Z-Lys-thiobenzyl, fluorescence readout, read-out: IC50 (μM), Factor D inhibition.
Format: biochemical
Method: Human Complement Factor D Assay: Method 1
Recombinant human factor D (expressed in E. coli and purified using standard methods) at 10 nM concentration is incubated with test compound at various concentrations for 1 hour at room temperature in 0.1 M Hepes buffer, pH 7.5, containing 1 mM MgCl2, 1 M NaCl and 0.05% CHAPS. A synthetic substrate Z-Lys-thiobenzyl and 2,4-dinitrobenzenesulfonyl-fluoresceine are added to final concentrations of 200 μM and 25 μM, respectively. The increase in fluorescence is recorded at excitation of 485 nm and emission at 535 nm in a microplate spectrofluorimeter. IC50 values are calculated from percentage of inhibition of complement factor D-activity as a function of test compound concentration.

Chain of Recombinant human factor D (P00746 26-253): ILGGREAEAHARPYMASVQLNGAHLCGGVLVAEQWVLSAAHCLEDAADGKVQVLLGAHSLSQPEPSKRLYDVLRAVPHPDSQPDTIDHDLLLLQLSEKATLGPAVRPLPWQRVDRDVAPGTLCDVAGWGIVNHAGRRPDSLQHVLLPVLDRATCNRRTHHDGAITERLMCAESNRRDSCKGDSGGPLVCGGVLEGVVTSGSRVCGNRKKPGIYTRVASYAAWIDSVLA

| SMILES | IC50 [µM] |
| --- | --- |
| CC(=O)c1nn(CC(=O)N2[C@@H]3C[C@@H]3C[C@H]2C(=O)NCCOC(F)(F)F)c2ccc(OCc3ncccn3)cc12 [Example 15, (1R,3S,5R)-2-{2-[3-Acetyl-5-(pyrimidin-2-ylmethoxy)-indazol-1-yl]-acetyl}-2-aza-bicyclo[3.1.0]hexane-3-carboxylic acid (2-trifluoro methoxy-ethyl)-amide] | 0.021 |
| CC(=O)c1nn(CC(=O)N2[C@@H]3C[C@@H]3C[C@H]2C(=O)NC(C)C)c2ccc(OCc3ncccn3)cc12 [Example 20, (1R,3S,5R)-2-{2-[3-Acetyl-5-(pyrimidin-2-ylmethoxy)-indazol-1-yl]-acetyl}-2-aza-bicyclo[3.1.0]hexane-3-carboxylic acid isopropyl amide] | 0.328 |
| CC(=O)c1nn(CC(=O)N2[C@@H]3C[C@@H]3C[C@H]2C(=O)NCCOC(F)(F)C(F)(F)F)c2ccc(OCc3ncccn3)cc12 [Example 16, (1R,3S,5R)-2-{2-[3-Acetyl-5-(pyrimidin-2-ylmethoxy)-indazol-1-yl]-acetyl}-2-aza-bicyclo[3.1.0]hexane-3-carboxylic acid (2-penta fluoroethyloxy-ethyl)-amide] | 0.152 |
| CO[C@H]1[C@@H](C(=O)NCCC(C)(C)C)N(C(=O)Cn2nc(C(C)=O)c3ccccc32)C[C@@H]1F [Example 5, (2S,3S,4S)-1-[2-(3-Acetyl-indazol-1-yl)-acetyl]-4-fluoro-3-methoxy-pyrrolidine-2-carboxylic acid (3,3-dimethyl-butyl)-amide] | 0.088 |
